# Source: patent US8993585B2, “Cyclic amine substituted pyrimidinediamines as PKC inhibitors” (Rigel Pharmaceuticals, Inc., priority 2007, dated 2015)
# System: Human primary T cells
# Test: IL-2 ELISA, Human Primary T Cell, Anti-CD3+CD28+ (Example 3)
# Assay type: cell-based
# Details: anti-CD3+CD28 stimulation
# Summary of the method: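 Human primary T cells, 100,000 per well, were pre-incubated with compound in Yssel's medium for 1 h at 37 °C. The counter-assay used 0.5 ng/ml PMA with 0.1 uM ionomycin final.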
Structure (SMILES),"IC50 (Homo sapiens, T-cell, 24 h)",other results
CN1C(C)(C)CC(Nc2nc(Nc3ccc4c(n3)NCCO4)ncc2F)CC1(C)C [II-24],11300 nM,
CN1C(C)(C)CC(Nc2nc(Nc3cnc4c(c3)OC(F)(F)C(=O)N4)ncc2F)CC1(C)C [II-25],2070 nM,
CN1C(=O)C(F)(F)Oc2cc(Nc3ncc(F)c(NC4CC(C)(C)N(C)C(C)(C)C4)n3)cnc21 [II-26],951 nM,
CN1C(=O)C(F)(F)Oc2cc(Nc3ncc(Cl)c(NC4CC(C)(C)N(C)C(C)(C)C4)n3)ccc21 [II-28],550 nM,
Cc1nc2cc(Nc3ncc(F)c(NC4CC(C)(C)N(C)C(C)(C)C4)n3)ccc2o1 [II-30],11100 nM,
CN1C(C)(C)CC(Nc2nc(Nc3ccc4c(c3)OCO4)ncc2F)CC1(C)C [II-32],,IC50 (24 hours): 864 nM
CN1C(C)(C)CC(Nc2nc(Nc3ccc4c(c3)OC(C)(C)C(=O)N4)ncc2F)CC1(C)C [II-33],,IC50 (24 hours): 407 nM
CN1C(C)(C)CC(Nc2nc(Nc3ccc4c(c3)oc(=O)n4C)ncc2F)CC1(C)C [II-36],678 nM,
CN1C(C)(C)CC(Nc2nc(Nc3ccc4c(c3)OC(F)(F)O4)ncc2F)CC1(C)C [II-37],1370 nM,
CN1C(C)(C)CC(Nc2nc(Nc3ccc4[nH]ncc4c3)ncc2F)CC1(C)C [II-38],827 nM,
CN1C(C)(C)CC(Nc2nc(Nc3ccc4c(cnn4C)c3)ncc2F)CC1(C)C [II-39],967 nM,
CN1C(C)(C)CC(Nc2nc(Nc3ccc4cn[nH]c4c3)ncc2F)CC1(C)C [II-40],,IC50 (24 hours): 2970 nM
CN1C(C)(C)CC(Nc2nc(Nc3ccc4cnn(C)c4c3)ncc2F)CC1(C)C [II-41],1610 nM,
CN1C(C)(C)CC(Nc2nc(Nc3ccc4c(c3)OCCCO4)ncc2F)CC1(C)C [II-43],1470 nM,
CC(C)N1C(=O)C(C)(C)Oc2cc(Nc3ncc(F)c(NC4CC(C)(C)N(C)C(C)(C)C4)n3)ccc21 [II-44],298 nM,
CCn1c(=O)oc2cc(Nc3ncc(F)c(NC4CC(C)(C)N(C)C(C)(C)C4)n3)ccc21 [II-46],391 nM,
CC(C)n1c(=O)oc2cc(Nc3ncc(F)c(NC4CC(C)(C)N(C)C(C)(C)C4)n3)ccc21 [II-47],229 nM,
CCCN1C(=O)C(C)(C)Oc2cc(Nc3ncc(F)c(NC4CC(C)(C)N(C)C(C)(C)C4)n3)ccc21 [II-48],263 nM,
CN(C)CCN1C(=O)C(C)(C)Oc2cc(Nc3ncc(F)c(NC4CC(C)(C)N(C)C(C)(C)C4)n3)ccc21 [II-49],1240 nM,
CCN1C(=O)C(C)(C)Oc2cc(Nc3ncc(C(F)(F)F)c(NC4CC(C)(C)N(C)C(C)(C)C4)n3)ccc21 [II-50],91.8 nM,
CN1CCc2cc(Nc3ncc(F)c(NC4CC(C)(C)N(C)C(C)(C)C4)n3)ccc21 [II-51],4880 nM,
CCN1CCc2cc(Nc3ncc(F)c(NC4CC(C)(C)N(C)C(C)(C)C4)n3)ccc21 [II-52],5610 nM,
CC(C)N1CCc2cc(Nc3ncc(F)c(NC4CC(C)(C)N(C)C(C)(C)C4)n3)ccc21 [II-53],4740 nM,
CN1C(=O)C(C)(C)Oc2cc(Nc3ncc(F)c(NC4CC(C)(C)N(C)C(C)(C)C4)n3)cnc21 [II-54],373 nM,
CCN1C(=O)C(C)(C)Oc2cc(Nc3ncc(F)c(NC4CC(C)(C)N(C)C(C)(C)C4)n3)cnc21 [II-55],258 nM,
CN1C(C)(C)CC(Nc2nc(Nc3ccc4c(c3)n(C)c(=O)n4C)ncc2F)CC1(C)C [II-56],968 nM,

Structure (SMILES),"IC50 (Homo sapiens, T-cell, 24 h)",other results
CCN1C(=O)C(C)(C)Oc2cc(Nc3ncc(C#N)c(NC4CC(C)(C)NC(C)(C)C4)n3)ccc21 [II-57],147 nM,
CCN1C(=O)COc2cc(Nc3ncc(F)c(NC4CC(C)(C)N(C)C(C)(C)C4)n3)ccc21 [II-58],231 nM,
CCCN1C(=O)COc2cc(Nc3ncc(F)c(NC4CC(C)(C)N(C)C(C)(C)C4)n3)ccc21 [II-59],148 nM,
CN1C(C)(C)CC(Nc2nc(Nc3ccc4c(c3)OCCO4)ncc2C#N)CC1(C)C [II-60],,IC50 (24 hours): 717 nM
CC(C)N1C(=O)COc2cc(Nc3ncc(F)c(NC4CC(C)(C)N(C)C(C)(C)C4)n3)ccc21 [II-61],168 nM,
CN1C(=O)C(C)(C)Sc2cc(Nc3ncc(F)c(NC4CC(C)(C)N(C)C(C)(C)C4)n3)ccc21 [II-62],38.3 nM,
CCN1C(=O)C(C)(C)Sc2cc(Nc3ncc(F)c(NC4CC(C)(C)N(C)C(C)(C)C4)n3)ccc21 [II-63],77.2 nM,
CN1C(=O)C(C)(C)S(=O)(=O)c2cc(Nc3ncc(F)c(NC4CC(C)(C)N(C)C(C)(C)C4)n3)ccc21 [II-64],,IC50 (24 hours): 849 nM
CCN1C(=O)C(F)(F)Oc2cc(Nc3ncc(C#N)c(NC4CC(C)(C)N(C)C(C)(C)C4)n3)cnc21 [II-65],255 nM,
CCN1C(=O)C(C)(C)S(=O)(=O)c2cc(Nc3ncc(F)c(NC4CC(C)(C)N(C)C(C)(C)C4)n3)ccc21 [II-66],,IC50 (24 hours): 695 nM
CC(C)N1C(=O)C(C)(C)S(=O)(=O)c2cc(Nc3ncc(F)c(NC4CC(C)(C)N(C)C(C)(C)C4)n3)ccc21 [II-67],,IC50 (24 hours): 811 nM
CN1C(=O)C2(CCC2)Oc2cc(Nc3ncc(F)c(NC4CC(C)(C)N(C)C(C)(C)C4)n3)ccc21 [II-68],,IC50 (24 hours): 261 nM
CCN1C(=O)C2(CCC2)Oc2cc(Nc3ncc(F)c(NC4CC(C)(C)N(C)C(C)(C)C4)n3)ccc21 [II-69],,IC50 (24 hours): 164 nM
CC(C)n1c(=O)oc2cc(Nc3ncc(C#N)c(NC4CC(C)(C)N(C)C(C)(C)C4)n3)ccc21 [II-70],327 nM,
CCN1C(=O)COc2cc(Nc3ncc(C#N)c(NC4CC(C)(C)N(C)C(C)(C)C4)n3)ccc21 [II-71],145 nM,
CCCN1C(=O)COc2cc(Nc3ncc(C#N)c(NC4CC(C)(C)N(C)C(C)(C)C4)n3)ccc21 [II-72],168 nM,
CCN1C(=O)C(F)(F)Oc2cc(Nc3ncc(C#N)c(NC4CC(C)(C)NC(C)(C)C4)n3)cnc21 [II-73],,IC50 (24 hours): 1180 nM
CC(C)N1C(=O)C(C)(C)Oc2cc(Nc3ncc(C#N)c(NC4CC(C)(C)N(C)C(C)(C)C4)n3)ccc21 [II-74],349 nM,
CC(C)N1C(=O)C(C)(C)Oc2cc(Nc3ncc(C#N)c(NC4CC(C)(C)NC(C)(C)C4)n3)ccc21 [II-75],,IC50 (24 hours): 476 nM
CN1C(C)(C)CC(Nc2nc(Nc3ccc4c(c3)OC(C)(C)C(=O)N4CC3CC3)ncc2F)CC1(C)C [II-76],,IC50 (24 hours): 178 nM
CN1C(C)(C)CC(Nc2nc(Nc3ccc4c(c3)OCC(=O)N4CC3CC3)ncc2F)CC1(C)C [II-77],,IC50 (24 hours): 101 nM
CN1C(C)(C)CC(Nc2nc(Nc3ccc4c(c3)OC(C)(C)C(=O)N4CCCF)ncc2F)CC1(C)C [II-78],369 nM,
CN1C(C)(C)CC(Nc2nc(Nc3ccc4c(c3)OC(C)(C)C(=O)N4CCF)ncc2C#N)CC1(C)C [II-79],152 nM,
CN1C(C)(C)CC(Nc2nc(Nc3ccc4c(c3)OC(C)(C)C(=O)N4CCF)ncc2F)CC1(C)C [II-80],199 nM,
CN1C(C)(C)CC(Nc2nc(Nc3ccc4c(c3)OC(C)(C)C(=O)N4CCCF)ncc2C#N)CC1(C)C [II-81],567 nM,
CN1C(C)(C)CC(Nc2nc(Nc3ccc4c(c3)OCC(=O)N4CCF)ncc2F)CC1(C)C [II-82],291 nM,

Structure (SMILES),"IC50 (Homo sapiens, T-cell, 24 h)",other results
CN1C(C)(C)CC(Nc2nc(N[C@H]3CCc4ccccc43)ncc2F)CC1(C)C [II-83],19600 nM,
CN1C(C)(C)CC(Nc2nc(N[C@@H]3CCc4ccccc43)ncc2F)CC1(C)C [II-84],17500 nM,
CN1C(C)(C)CC(Nc2nc(Nc3ccc(NCc4ccccc4)cn3)ncc2F)CC1(C)C [II-85],3660 nM,
CN1C(C)(C)CC(N(Cc2ccccc2)c2nc(Nc3ccc4c(c3)OCCO4)ncc2F)CC1(C)C [II-86],,"IC50 (T-cell, 24 hours): 1260 nM"
CN1C(C)(C)CC(N(Cc2ccc3ccccc3c2)c2nc(Nc3ccc4c(c3)OCCO4)ncc2F)CC1(C)C [II-87],3810 nM,
CN1C(C)(C)CC(N(Cc2ccc(-c3ccccc3)cc2)c2nc(Nc3ccc4c(c3)OCCO4)ncc2F)CC1(C)C [II-88],2480 nM,
CN1C(C)(C)CC(N(Cc2ccc3ccccc3n2)c2nc(Nc3ccc4c(c3)OCCO4)ncc2F)CC1(C)C [II-89],7670 nM,
CN1C(C)(C)CC(N(Cc2cc3c(cc2Br)OCO3)c2nc(Nc3ccc4c(c3)OCCO4)ncc2F)CC1(C)C [II-90],5580 nM,
CN1C(C)(C)CC(N(Cc2ccc(-c3ccccc3C#N)cc2)c2nc(Nc3ccc4c(c3)OCCO4)ncc2F)CC1(C)C [II-91],3860 nM,
CC1(C)CC(Nc2nc(Nc3ccc4c(c3)OC(C)(C)O4)ncc2F)CC(C)(C)N1 [II-102],5220 nM,
CN1C(C)(C)CC(Nc2nc(Nc3ccc4c(c3)OC(C)(C)O4)ncc2F)CC1(C)C [II-103],3690 nM,
CN1C(C)(C)CC(Nc2nc(Nc3ccc4c(c3)OC3(CCCC3)O4)ncc2F)CC1(C)C [II-113],2170 nM,
CN1C(C)(C)CC(Nc2nc(Nc3ccc4c(c3)OC3(CCCCC3)O4)ncc2F)CC1(C)C [II-114],2630 nM,
CN1C(C)(C)CC(Nc2nc(Nc3cc4c(cc3Cl)OCO4)ncc2F)CC1(C)C [II-115],1840 nM,
CN1C(C)(C)CC(Nc2nc(Nc3cc4c(cc3Cl)OCCO4)ncc2F)CC1(C)C [II-116],1470 nM,
CC1(C)CC(Nc2nc(Nc3ccc4c(c3)OC3(CCCC3)O4)ncc2F)CC(C)(C)N1 [II-120],1350 nM,
CC1(C)CC(Nc2nc(Nc3ccc4c(c3)OC3(CCCCC3)O4)ncc2F)CC(C)(C)N1 [II-121],1810 nM,
CN1C(C)(C)CC(Nc2nc(Nc3cc4c(cc3Br)OC(F)(F)O4)ncc2F)CC1(C)C [II-122],2160 nM,
CN1C(C)(C)CC(Nc2nc(Nc3cc4c(cc3F)OC(F)(F)C(F)(F)O4)ncc2F)CC1(C)C [II-123],880 nM,
CN1C(C)(C)CC(Nc2nc(Nc3ccc4c(c3)OCCO4)ncc2Br)CC1(C)C [II-127],450 nM,
COc1cnc(Nc2ccc3c(c2)OCCO3)nc1NC1CC(C)(C)N(C)C(C)(C)C1 [II-129],10900 nM,
CN1C(C)(C)CC(Nc2nc(Nc3nc4ccc(F)cc4s3)ncc2F)CC1(C)C [II-131],990 nM,
CN1C(C)(C)CC(Nc2nc(Nc3nc(-c4ccc5c(c4)OCCO5)cs3)ncc2F)CC1(C)C [II-132],840 nM,
CN1C(C)(C)CC(Nc2nc(Nc3nc(-c4ccc(N5CCCC5)cc4)cs3)ncc2F)CC1(C)C [II-133],2220 nM,
CN1C(C)(C)CC(Nc2nc(Nc3nc(C(F)(F)F)co3)ncc2F)CC1(C)C [II-134],16000 nM,
CCN(CC)c1ccc(-c2csc(Nc3ncc(F)c(NC4CC(C)(C)N(C)C(C)(C)C4)n3)n2)cc1 [II-135],3600 nM,
